Measured values published in patent US20160166536A1, “COMBINATION THERAPY FOR THE TREATMENT OF CANCER” (NORTHWESTERN UNIVERSITY, priority 2014, published 2016).

Legend:
Assay type in all cases: cell-based
[1] = tested on: MDA-MB-231 cells; experiment: MTS proliferation assay, MDA-MB-231 cells on tissue culture plates (2D TCPS); conditions: 48 h
Experimental: To evaluate the effectiveness of Eribulin and CYC065 in inhibiting tumor cell proliferation of triple-negative breast cancer cells, the breast cancer cell line MDA-MB-231 having the triple-negative phenotype was tested. MDA-MB-231 cells were seeded on tissue culture plates and cultured for ˜18 h. Cells were treated with different doses of either drug [Eribulin (0.1 nM-100 nM); CYC065 (50 nM-1000 nM)] for 48 h. Proliferation was quantified using the MTS assay.
(§1) The ability of a composition including Eribulin and CYC065 to inhibit inhibiting tumor cell proliferation of triple-negative breast cancer cells was evaluated in three different cell lines having the triple-negative phenotype: MDA-MB-231 (FIG. 2A), […] (FIG. 2B) and MDA-MB-436 (FIG. 2C). The cells were seeded on tissue culture plates and cultured for ˜18 h. The cells were then contacted with 300 nM CYC065 alone, 5 nM Eribulin alone or a combination of 300 nM CYC065 and 5 nM Eribulin for 48 h.
MDA-MB-231 cells were seeded on 2D TCPS at 5000 cells/well and cultured for ˜18 h. […] Proliferation was quantified using the MTS assay.
MDA-MB-231, HS-578T and MDA-MB-436 cells lines were seeded on TCPS at 5000 cells/well and cultured for ˜18 h. […] Proliferation was quantified using the MTS assay. […] (N≧4 for all groups.) Data was analyzed using one-way ANOVA and comparison between groups post ANOVA was performed using Tukey HSD test.

[2] = tested on: MDA-MB-436 cells; experiment: MTS proliferation assay, MDA-MB-436 cells on TCPS; conditions: 300 nM CYC065 alone, 5 nM Eribulin alone or their combination, 48 h, FIG. 2C
Experimental: as §1
(§2) MDA-MB-231, HS-578T and MDA-MB-436 cells lines were seeded on TCPS at 5000 cells/well and cultured for ˜18 h. They were then treated with 300 nM CYC065 and 5 nM Eribulin or their combination for 48 h. Proliferation was quantified using the MTS assay. […] (N≧4 for all groups.) Data was analyzed using one-way ANOVA and comparison between groups post ANOVA was performed using Tukey HSD test.

[3] = tested on: HS-578T cells; experiment: MTS proliferation assay, HS-578T cells on TCPS; conditions: 300 nM CYC065 alone, 5 nM Eribulin alone or their combination, 48 h, FIG. 2B
Experimental: as §1, §2

C=C1C[C@@H]2CC[C@@]34C[C@H]5O[C@H]6[C@@H](O3)[C@H]3O[C@H](CC[C@@H]3O[C@H]6[C@H]5O4)CC(=O)C[C@@H]3[C@@H](OC)[C@@H](C[C@H](O)CN)O[C@H]3C[C@H]3O[C@@H](CC[C@@H]1O2)C[C@@H](C)C3=C [Eribulin, 2-(3-Amino-2-hydroxypropyl)hexacosahydro-3-methoxy-26-methyl-20,27-bis(methylene)11,15-18,21-24,28-triepoxy-7,9-ethano-12,15-methano-9H,15H-furo(3,2-i)furo(2′,3′-5,6) pyrano(4,3-b)(1,4)dioxacyclopentacosin-5-(4H)-one]
inhibition of tumor cell proliferation ([1]; 300 nM CYC065 alone, 5 nM Eribulin alone or their combination, FIG. 2A): inhibited tumor cell proliferation | inhibition of cell proliferation, dose response ([1]; Eribulin 0.1 nM-100 nM, CYC065 50 nM-1000 nM, FIGS. 1A, 1B): inhibit proliferation in the nM range | inhibition of tumor cell proliferation [2]: inhibited tumor cell proliferation | inhibition of tumor cell proliferation [3]: inhibited tumor cell proliferation
